Measured values taken from patent US5463052A, “Method for producing benzylidene derivatives” (Shionogi & Co., Ltd., priority 1993, dated 1995).

Legend:
Type in all cases: cell-based
[1] = test system: production of IL-1 in THP-1 cells; test: inhibitory activity against the production of IL-1 under LPS stimulation in THP-1 cells; conditions: Homo sapiens, read-out: L-1 (THP-1) IC50
Description: (§1) These benzylidene derivatives of the formula III can be prepared in a conventional manner, for example, according to the following reaction scheme. [drawing 5] In the reaction scheme above, R is a as defined above and R^3 is hydroxy-protecting group in EP patent application No. 93308369.3 (Publication No. 595546) corresponding to U.S. patent application No. 08/142,146. Thus, hydroxy-protected 3,5-di-tert-butyl-4-hydroxybenzaldehyde 4 is reacted with γ-sultam derivative 2 under a conditions for aldol reaction to obtain an aldol addition compound 5. The compound […], when deprotected and dehydrated in the presence of an acid, gives the objective benzylidene derivative 3' as a mixture of stereoisomers in (E)- and (Z) forms, which is then subjected to resolution, when a given isomer is desired.

[2] = test system: production of PGE2 in rat synovial membrane cells; test: inhibitory activity against the production of PGE2 in rat synovial membrane cells (Rat SVC)
Description: as §1

[3] = test system: production of LTB4 in rat celiac cells; test: inhibitory activity against the production of LTB4 in rat celiac cells (Rat PEC)
Description: as §1

IC50 [1]	IC50 [2]	IC50 [3]	Compound
29000 nM	< 1 nM	1800 nM	CN1CC/C(=C/c2cc(C(C)(C)C)c(O)c(C(C)(C)C)c2)S1(=O)=O [(Z), 5-(3,5-di-tert-butyl-4-hydroxybenzylidene)-2-methyl-1,2-isothiazolidine-1,1-dioxide]
21000 nM	< 1 nM	2800 nM	CN1CC/C(=C\c2cc(C(C)(C)C)c(O)c(C(C)(C)C)c2)S1(=O)=O [(E), (E)-5-(3,5-di-tert-Butyl-4-hydroxybenzylidene)-2-methyl-1,2-isothiazolidine-1,1-dioxide]
